From patent US20240131168A1, “NAPHTHALENE RING-CONTAINING COMPOUND, PHARMACEUTICAL COMPOSITION CONTAINING SAME, AND USE THEREOF” (JIANGSU YAHONG MEDITECH CO., LTD., priority 2021, published 2024)
pIC50: −log10 of the molar value.

How the values were obtained:
[1] = system: MDA-MB-468; assay: CellTiter-Glo cell proliferation inhibition, MDA-MB-468; type: cell-based; details: Homo sapiens, 144 h, MDA-MB-468 (CTG), 6 days, starting concentration 10 μM; for inhibition at up to 10 µM: read-out: IH % max (maximum inhibition percentage)
[2] = system: MCF-7 ER^D538G; assay: CellTiter-Glo cell proliferation inhibition, MCF-7 ER^D538G; type: cell-based; details: Homo sapiens, MCF7, 144 h, MCF-7 ER^D538G (CTG), 6 days, starting concentration 10 μM; for inhibition at up to 10 µM: read-out: IH % max (maximum inhibition percentage)
Procedure, shortened: (§1)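 MCF-7, TamR-MCF-7, and CRISPR-edited MCF-7 ER D538G or Y537S cells were seeded at 1,000 or 2,000 cells/well in EMEM and cultured 24 h. They were then exposed to a 4-fold, 10-point series (top 10 µM before addition to wells) for 6 days or 72 h at 37 °C. CellTiter-Glo luminescence gave IC50 and maximum % inhibition.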

[3] = system: MCF-7 ER^Y537S; assay: CellTiter-Glo cell proliferation inhibition, MCF-7 ER^Y537S; type: cell-based; details: Homo sapiens, MCF7, 144 h; MCF-7 ER^Y537S (CTG), 6 days, starting concentration 10 μM; read-out: IH % max (maximum inhibition percentage)
Procedure, shortened: as §1

[4] = system: TamR-MCF-7; assay: CellTiter-Glo cell proliferation inhibition, TamR-MCF-7; type: cell-based; details: 144 h, TamR-MCF-7 (CTG), 6 days, starting concentration 10 μM; for inhibition at up to 10 µM: read-out: IH % max (maximum inhibition percentage)
Procedure, shortened: as §1

[5] = system: MDA-MB-231; assay: CellTiter-Glo cell proliferation inhibition, MDA-MB-231; type: cell-based; details: Homo sapiens, 144 h, MDA-MB-231 (CTG), 6 days, starting concentration 10 μM; for inhibition at up to 10 µM: read-out: IH % max (maximum inhibition percentage)
Source text: 1. Cell line • (1) Breast cancer cell lines and their culture media: • MCF-7 (ATCC; Cat. No.: HTB-22), a Luminal A breast cancer cell; • TamR-MCF-7 (ATCC; Cat. No.: CRL-3435), a breast cancer cell; • MCF-7 ER^D538G: a Luminal A breast cancer cell obtained by constructing MCF-7 (ATCC; Cat. No.: HTB-22) using CRISPR-Cas9 gene editing technology; • MCF-7 ER^Y537S: a Luminal A breast cancer cell obtained by constructing MCF-7 (ATCC; Cat. No.: HTB-22) using CRISPR-Cas9 gene editing technology; • MDA-MB-231: (manufacturer: Nanjing CoBioer Biosciences Co., Ltd.), a triple-negative breast cancer cell; • MDA-MB-468: (manufacturer: Nanjing CoBioer Biosciences Co., Ltd.), a triple-negative breast cancer cell.
Herein, the culture medium of MCF-7, TamR-MCF-7, MCF-7 ER^D538G, and MCF-7 ER^Y537S was EMEM; • the culture medium of MDA-MB-231 and MDA-MB-468 was DMEM.
2. Reagents • Culture medium EMEM (Gibco, 1964507) • Culture medium DMEM (Gibco, 12430-054) • Fetal bovine serum (Gibco, 10091148) • Penicillin-streptomycin double antibody (Gibco, S110JV) • DPBS (Gibco, 14190-144) • CellTiter-Glo® assay kit (Promega, G7573) • Trypsin (0.25%) (Gibco, 25200-056) • DMSO (Sigma, D2650)
3. Instruments • Biosafety cabinet (AIRTECH, BSC-1300A II) • Automated cell counter (Life Technologies, countess II) • Multifunctional microplate reader (Biotek, H1FM) • Orbital shaker (Hangzhou Allsheng Instruments Co., Ltd., OS-100) • XLFIT 5.3 (Inforstack Shanghai Co., Ltd.)
For this test method, the following experiments were performed in a biosafety cabinet, with the specific steps as follows: • (1) Cells were inoculated in a 96-well plate. One day later, the previous culture medium was poured off, 5 mL of DPBS was added to wash the cells, and then DPBS was pipetted and discarded. An appropriate amount of trypsin was then added. The plate was digested in a 37° C., 5% CO2 cell incubator for about 2 to 5 minutes and then taken out. Anew corresponding culture medium was added, and pipetted up and down to resuspend the cells evenly. The cells were then counted using an automated cell counter. • (2) Each cell was inoculated in columns 1 to 11 of a 96-well plate (Corning, Cat. No.: 3610) at a density of 1,000 or 2,000 cells per well in 100 μL of culture medium, and 100 μL of the corresponding culture medium without cells was added to the wells in column 12. The plate was then placed in a 37° C., 5% CO2 incubator for 24 hours. • (3) The compound of the present disclosure and the control drug fulvestrant (Selleck; Cat. No.: S1191) were then 4-fold serially diluted to 10 dose points starting at 10 μM. 10 μL of the serially diluted compound was pipetted and added to 100 μL of cells in columns 1 to 10, and 10 μL of the corresponding culture medium containing 0.33 v % DMSO was added to both columns 11 and 12. The plate was incubated in a 37° C., 5% CO2 incubator for 6 days or 72 hours (Note: column 11 was used as a MAX well with cells but without compound; column 12 was used as a MIN well without cells […]). • (4) The cell viability detection reagent in the CellTiter-Glo® assay kit was then added to the 96-well plate at 50 μL per well according to the instructions, and shaken on an orbital shaker in the dark for 5 to 10 minutes. The cell viability was then measured using a multifunctional microplate reader. Finally, the inhibition of cell proliferation by the compound of the present disclosure was plotted by XLFIT software, and the IC50 value (half inhibitory concentration) and the IH % max (maximum inhibition percentage) of the compound of the present disclosure were calculated.
Compounds D64 to D69 were tested for MDA-MB-231 (CTG) and MDA-MB-468 (CTG) with an incubation time of 72 hours in the incubator.

[6] = system: MCF-7; assay: CellTiter-Glo cell proliferation inhibition, MCF-7 (Effect Example 2); type: cell-based; details: Homo sapiens, MCF7, 144 h, MCF-7 (CTG), 6 days, starting concentration 10 μM; for inhibition at up to 10 µM: read-out: IH % max (maximum inhibition percentage)
Procedure, shortened: as §1

[7] = target: T1, estrogen receptor (Homo sapiens, UniProt P03372); details: background section; cited from earlier work
T1 sequence (P03372 1-595): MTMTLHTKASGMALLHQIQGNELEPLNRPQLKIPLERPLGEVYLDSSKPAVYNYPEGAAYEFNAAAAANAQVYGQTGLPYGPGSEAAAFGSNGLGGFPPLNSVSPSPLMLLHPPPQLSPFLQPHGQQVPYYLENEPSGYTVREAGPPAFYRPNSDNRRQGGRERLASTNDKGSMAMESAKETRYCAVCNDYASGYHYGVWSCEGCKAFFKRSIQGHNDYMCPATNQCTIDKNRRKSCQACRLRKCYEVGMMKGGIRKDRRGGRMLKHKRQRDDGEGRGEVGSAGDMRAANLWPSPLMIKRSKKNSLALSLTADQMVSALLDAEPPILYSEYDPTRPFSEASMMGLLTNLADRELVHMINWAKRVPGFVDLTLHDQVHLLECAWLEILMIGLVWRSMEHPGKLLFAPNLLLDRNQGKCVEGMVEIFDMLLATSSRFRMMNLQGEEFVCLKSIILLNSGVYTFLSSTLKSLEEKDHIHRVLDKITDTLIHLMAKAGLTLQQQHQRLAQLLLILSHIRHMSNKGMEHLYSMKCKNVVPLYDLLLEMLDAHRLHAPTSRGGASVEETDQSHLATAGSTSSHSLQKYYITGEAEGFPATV

| pIC50 [2] | pIC50 [4] | pIC50 [6] | pIC50 [1] | pIC50 [5] | Structure (SMILES) | inhibition at up to 10 µM [1] [%] | inhibition at up to 10 µM [2] [%] | inhibition at up to 10 µM [3] [%] | inhibition at up to 10 µM [4] [%] | inhibition at up to 10 µM [5] [%] | inhibition at up to 10 µM [6] [%] | maximum protein degradation rate [7] |
| --- | --- | --- | --- | --- | --- | --- | --- | --- | --- | --- | --- | --- |
| 6.54 | – | – | – | – | CCN(CCOc1ccc(Oc2c(-c3ccc(S(C)(=O)=O)cc3)ccc3cc(O)ccc23)cc1)C(=O)c1ccc(CCC2CCN(C3CCN(c4cccc5c4C(=O)N(C4CCC(=O)NC4=O)C5=O)CC3)CC2)cc1 (stereo not drawn) [Compound D33, 4-(2-(1′-(2-(2,6-dioxopiperidin-3-yl)-1,3-dioxoisoindolin-4-yl)-[1,4′-bipiperidin]-4-yl)ethyl)-N-ethyl-N-(2-(4-((6-hydroxy-2-(4-(methylsulfonyl)phenyl)naphthalen-1-yl)oxy)phenoxy)ethyl)benzamide] | 94 | 92 | 76 | 45 | 57 | 45 | – |
| – | 6.94 | 8.80 | – | – | C[C@]12CC[C@@H]3c4ccc(O)cc4C[C@@H](CCCCCCCCC[S+]([O-])CCCC(F)(F)C(F)(F)F)[C@H]3[C@@H]1CC[C@@H]2O (stereo partly drawn) [Fulvestrant, fulvestrant, reference compound] | 39.4 | – | – | 71.8 | – | 80.7 | about 61% |
| – | – | – | – | – | CN(CCOCCN1CCN(c2ccc3c(c2)CN(C2CCC(=O)NC2=O)C3=O)CC1)CCOc1ccc(Oc2c(-c3ccc(S(C)(=O)=O)cc3)ccc3cc(O)ccc23)cc1 (stereo not drawn) [Compound D10, 3-(5-(4-(2-(2-((2-(4-((6-hydroxy-2-(4-(methylsulfonyl)phenyl)naphthalen-1-yl)oxy)phenoxy)ethyl)methylamino)ethoxy)ethyl)piperazin-1-yl)-1-oxoisoindolin-2-yl)piperidine-2,6-dione] | 68 | 67 | 54 | 36 | 38 | 40 | – |
| 6.37 | 6.48 | 6.88 | 6.58 | 6.99 | CS(=O)(=O)c1ccc(-c2ccc3cc(O)ccc3c2Oc2ccc(OCCN3CCN(c4ccc5c(c4)C(=O)N(C4CCC(=O)NC4=O)C5=O)CC3)cc2)cc1 (stereo not drawn) [Compound D6, 2-(2,6-dioxopiperidin-3-yl)-5-(4-(2-(4-((6-hydroxy-2-(4-(methylsulfonyl)phenyl)naphthalen-1-yl)oxy)phenoxy)ethyl)piperazin-1-yl)isoindoline-1,3-dione] | 98 | 91 | 78 | 90 | 100 | 100 | – |
